Source: ChEMBL document CHEMBL1155886, “Discovery of piperidine-aryl urea-based stearoyl-CoA desaturase 1 inhibitors” (Bioorg Med Chem Lett, 2008)
pIC50: −log10 of the molar value. The source made the active and inactive calls. The rule behind the calls is not given here.

Legend:
Acyl-CoA desaturase 1 = target: T1, Acyl-CoA desaturase 1 (Mus musculus, UniProt P13516); experiment: Inhibition of mouse SCD1
T1 sequence (P13516 whole entry): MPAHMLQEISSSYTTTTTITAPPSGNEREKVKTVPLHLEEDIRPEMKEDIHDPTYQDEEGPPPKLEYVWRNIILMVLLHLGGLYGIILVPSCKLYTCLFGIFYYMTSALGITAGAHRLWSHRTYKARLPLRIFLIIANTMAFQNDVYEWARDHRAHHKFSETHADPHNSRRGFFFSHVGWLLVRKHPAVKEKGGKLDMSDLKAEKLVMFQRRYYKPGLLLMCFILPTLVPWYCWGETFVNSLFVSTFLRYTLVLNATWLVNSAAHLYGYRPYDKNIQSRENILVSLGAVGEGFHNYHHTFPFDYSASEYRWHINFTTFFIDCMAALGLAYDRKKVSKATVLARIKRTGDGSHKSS

[1] = Inhibition of human recombinant SCD1 expressed in baculovirus/insect cell system
Mus musculus [2] = experiment: Reduction in desaturation index in plasma of ob/ob mouse assessed as ratio of C18:0/C18:1n9 at 10 mg/kg bid; format: functional, organism-based; parameters: dose 10 mg/kg
[3] = Inhibition of cytochrome b5 reductase at >10 uM
Mus musculus [4] = experiment: Reduction in desaturation index in liver of ob/ob mouse assessed as ratio of C16:0/C16:1n7 at 10 mg/kg bid; format: functional, organism-based; parameters: dose 10 mg/kg
[5] = Volume of distribution at steady state in mouse; format: ADME, organism-based; details: in vivo, read-out: Vdss
[6] = Oral bioavailability in mouse; format: ADME, organism-based; details: in vivo
Mus musculus [7] = species on record: Mus musculus; experiment: Reduction in triglyceride desaturation index in ob/ob mouse; format: functional, organism-based
Mus musculus [8] = experiment: Reduction in desaturation index in plasma of ob/ob mouse assessed as ratio of C16:0/C16:1n7 at 10 mg/kg bid; format: functional, organism-based; parameters: dose 10 mg/kg
[9] = target: Cytochrome b5 (Homo sapiens) (UniProt P00167); experiment: Inhibition of cytochrome b5 at >10 uM
Sequence of Cytochrome b5 (Homo sapiens) (P00167 whole entry): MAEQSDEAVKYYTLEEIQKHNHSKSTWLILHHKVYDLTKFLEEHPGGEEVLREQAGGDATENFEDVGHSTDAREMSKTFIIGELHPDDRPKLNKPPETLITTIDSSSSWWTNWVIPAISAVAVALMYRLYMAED

[10] = Clearance in mouse plasma; format: ADME, organism-based
Mus musculus [11] = experiment: Reduction in desaturation index in liver of ob/ob mouse assessed as ratio of C18:0/C18:1n9 at 10 mg/kg bid; format: functional, organism-based; parameters: dose 10 mg/kg
Mus musculus [12] = experiment: Reduction in desaturation index in plasma of ob/ob mouse assessed as ratio of C16:0/C16:1n7 at 30 mg/kg bid; format: functional, organism-based; parameters: dose 30 mg/kg
Mus musculus [13] = experiment: Reduction in desaturation index in liver of ob/ob mouse assessed as ratio of C18:0/C18:1n9 at 30 mg/kg bid; format: functional, organism-based; parameters: dose 30 mg/kg
Mus musculus [14] = experiment: Reduction in desaturation index in liver of ob/ob mouse assessed as ratio of C16:0/C16:1n7 at 30 mg/kg bid; format: functional, organism-based; parameters: dose 30 mg/kg
Mus musculus [15] = experiment: Reduction in desaturation index in plasma of ob/ob mouse assessed as ratio of C18:0/C18:1n9 at 30 mg/kg bid; format: functional, organism-based; parameters: dose 30 mg/kg

pIC50 (Acyl-CoA desaturase 1)	Structure (SMILES)	pIC50 [1]	further results
6.23	O=C(Nc1ccccc1)N1CCC(Oc2ccccc2Cl)CC1	5.12	–
> 8.40	CNC(=O)c1cccc(NC(=O)N2CCC(Oc3cc(F)ccc3Cl)CC2)c1	7.74	–
6.43	CNC(=O)c1cccc(NC(=O)N2CCC(Oc3ccccc3)CC2)c1	5.40	–
7.70	CNC(=O)c1cccc(NC(=O)N2CCC(Oc3cccc(Cl)c3)CC2)c1	6.57	–
< 5.00	CC(C)(C)NC(=O)c1cccc(NC(=O)N2CCC(Oc3ccccc3Cl)CC2)c1	< 5.00	–
8.10	CCNC(=O)c1cccc(NC(=O)N2CCC(Oc3ccccc3Cl)CC2)c1	6.82	–
8.00	NC(=O)c1cccc(NC(=O)N2CCC(Oc3ccccc3Cl)CC2)c1	7.23	–
6.15	CNC(=O)c1cccc(NC(=O)N2CCN(C(=O)c3ccccc3C(F)(F)F)CC2)c1	–	–
> 8.40	CNC(=O)c1cccc(NC(=O)N2CCC(Oc3ccccc3Br)CC2)c1	7.52	–
7.77	CNC(=O)c1cccc(NC(=O)N2CCC(Oc3ccccc3C)CC2)c1	6.92	–
6.09	CC(C)NC(=O)c1cccc(NC(=O)N2CCC(Oc3ccccc3Cl)CC2)c1	5.15	–
< 5.00	CNC(=O)c1ccc(NC(=O)N2CCN(C(=O)c3ccccc3C(F)(F)F)CC2)cc1	–	–
6.48	CNC(=O)c1cccc(NC(=O)N2CCC(Oc3c(F)cccc3Cl)CC2)c1	5.01	–
> 8.40	CNC(=O)c1cccc(NC(=O)N2CCC(Oc3ccccc3Cl)CC2)c1	7.43	Activity (Mus musculus [2]): Active; Activity [3]: inactive; Activity (Mus musculus [4]): Active; Vd [5]: 0.4 L/kg; bioavailability [6]: 92%; Activity (Mus musculus [7]): Dose-dependent effect; Activity (Mus musculus [8]): Active; Activity [9]: inactive; clearance [10]: 6.67 mL/min/kg; Activity (Mus musculus [11]): Active
8.00	O=C(Nc1cccc(-c2ncc[nH]2)c1)N1CCC(Oc2ccccc2Cl)CC1	6.44	–
8.10	Cc1noc(-c2cccc(NC(=O)N3CCC(Oc4ccccc4Cl)CC3)c2)n1	6.96	–
8.22	CNC(=O)c1cccc(NC(=O)N2CCC(Oc3ccc(F)cc3Cl)CC2)c1	7.24	–
7.09	CNC(=O)c1cccc(NC(=O)N2CCC(Oc3ccccc3OC)CC2)c1	5.72	–
7.01	CNC(=O)c1cccc(NC(=O)N2CCC(Oc3ccccc3F)CC2)c1	6.17	Activity (Mus musculus [12]): Active; Activity (Mus musculus [13]): Active; Activity (Mus musculus [14]): Active; Activity (Mus musculus [15]): Active
